# Results as given in paper PMC8280143, “A novel dephosphorylation targeting chimera selectively promoting tau removal in tauopathies” (Signal Transduction and Targeted Therapy, 2021).
# Entries after “also recorded” stand apart in the source; their conditions may differ.
# What was measured:
# [1] = test system: primary rat hippocampal neurons; experiment: Cell penetrability assessment in cultured primary hippocampal neurons; assay type: in vitro ADME; conditions: FITC-labeled DEPTAC 100 μM, 24 h, fixed; laser-scanning microscopy (fluorescence)
# Method: Primary hippocampal neurons were prepared from E12–E15 days SD rat embryos. Briefly, pregnant rats were acutely executed, hippocampus was dissected on ice and gently minced in DME/F12 (Hyclone) then suspended in 0.125% (vol/vol) trypsin solution at 37 °C for 20 min. Enzymatic activity was stopped by fetal bovine serum. Neurons were initially kept in 10% FBS-containing DME/F12 for 4–6 h, and subsequently cultured in Neurobasal (Hyclone) with 2% B27, 1% glutamax and 1% penicillin–streptomycin (Thermo Fisher Scientific) in dishes pre-coated with 100 μg/mL poly-D-lysine. Serum was gradually removed by replacing half of the medium for each time within the following 2 days. Especially, to inhibit the proteasome-dependent proteolysis, the cultured hippocampal neurons were treated with 5 μM MG132 for 5 h before harvest.
# FITC-labeled DEPTAC (100 μM) was dissolved in sterilized water, and administrated into the medium of cultured primary rat hippocampal neurons for 24 h. Neurons were fixed with 4% paraformaldehyde, co-stained with DAPI (Beyotime), and then washed with PBS for 3 × 5 min. FITC was observed under a laser-scanning microscopy (Zeiss).
# [2] = test system: human tau N-terminal 1–368 fragment (hTau-N368); experiment: Hippocampal phosphorylated and total tau in dox-treated Tau368 mice; assay type: in vivo, mouse
# Method: Mice weighting 20–30 g were anesthetized with 1% pentobarbital sodium (35 mg/kg), and fixed in a stereotaxic instrument (RWD). The scalp was sterilized with iodophors and 75% ethanol, and incised along the skull midline. Holes were drilled. Adeno-associated virus or DEPTAC was injected into the dorsal DG (posterior 1.9 mm, lateral ±1.1 mm from the bregma, ventral −2.0 from the skull) or lateral ventricle (posterior 0.22 mm, lateral ±1.0 mm from the bregma, ventral −2.5 from the skull), respectively, using an automatic microinjection system (World Precision Instruments, USA) at a rate of 0.05 μL/min. The needle syringe was left in place for 5 min before withdrawal. The skin was sutured and sterilized with iodophors. Mice were placed on thermos tank for analepsia.
# (§1) For 2-month male C57BL/6 mice, 10 mM FITC-labeled or unlabeled-DEPTAC were directly injected through the tail vein or lateral ventricle for the evaluation of BBB-penetrability. For 9-month 3×Tg AD mice or Tau368 (20–30 g body weight), unlabeled-DEPTAC (5 mM, 1 μL for each time) was delivered for once into the lateral ventricle through direct stereotaxic injection, or repeatedly administrated through guiding cannulas (RWD, Shenzhen, China) implanted into the lateral ventricle once every 3 days for a consecutive month to test its dephosphorylation efficiency. Mice were restricted in a custom designed device and stayed awake during drug administration, and sacrificed at 24 h post the single or last DEPTAC administration.
# Cultured cells or hippocampus tissues were collected on ice, and homogenized with RIPA lysis buffer containing 50 mM Tris-HCl, 100 mM NaCl, 1% Triton X-100, 5 mM EDTA, and 1:100 PMSF, and then centrifuged at 12,000 × g for 20 min. The supernatant was collected for the analysis of soluble proteins. In some experiments, the pellets were further incubated with 8% SDS buffer at 37 °C and then ultrasound for 60 times to reach a complete resuspension for the analysis of insoluble tau. Protein concentration was measured through BCA assays (Thermo Fisher). Equal amount of protein from each sample were separated in SDS-PAGE gels, and then transferred onto nitrocellulose or 0.22 μm polyvinylidene fluoride membranes (Merck Millipore). The membranes were blocked with 5% BSA, and incubated in turn with primary and horseradish peroxidase-conjugated secondary antibodies: pS199-Tau (44734G, Invitrogen, 1:2000), pT205-Tau (11108-1, Signalway, 1:2000), pS396-Tau (11102, Signalway, 1:2000), pS404-Tau (11112, Signalway, 1:2000), AT8 (MN1020, Thermo Fisher, 1:1000), Tau5 (ab80579, Abcam, 1:1000), Tau46 (T9450, Sigma, 1:1000), PP2A-Bα (4953, Cell signaling, 1:1000), Phospho-Ser/Thr (ab17464, Abcam1:1000), Ubiquitin (ab7254, Abcam, 1:1000), MAP2 (AB5622, Millipore, 1:2000), hTau-N368 (a generous gift from Prof. Keqiang Ye, Emory University School of Medicine, 1:1000), DEPTAC (developed by Daian Biotechnology, Wuhan, China, 1:500), β-actin (ab6276, Abcam, 1:2000). HRP-conjugated goat anti-rabbit IgG (A0208, Beyotime, 1:3000), HRP-conjugated goat anti-mouse IgG (A0216, Beyotime, 1:3000). Blots were visualized using ECL luminol reagent (P0018FS, Beyotime), and quantified using ImageJ software.
# [3] = test system: microtubules in neurites of hippocampal neurons of Tau368 mice; experiment: Electron microscopy of microtubule bundles; assay type: in vivo, mouse; conditions: dox 2 months
# Method: as §1
# Mice were killed by overdose 1% pentobarbital sodium. Hippocampal tissues were isolated on ice, fixed in 2.5% glutaraldehyde at 4 °C for 24 h, washed in 0.1 M phosphate buffer, and post-fixed in 1% osmium acid for 2 h. After washed with phosphate buffer, tissues were dehydrated in increasing gradient of ethanol (30–100%), and incubated in turn with acetone/epoxy (2:1), acetone/epoxy (1:1) and epoxy for 12 h each at 37 °C. Tissues were subsequently embedded in epoxy at 37 °C for 48 h. Sections of 100 nm were sliced using a ultramicrotome (EM UC7, Leica), and stained in a buffer containing 2% uranium acetate and lead citrate at room temperature for 15 min. Images were taken by a transmission electron microscope (Tecnai G^2 20 TWIN, FEI). Bundles density and length were analyzed using ImageJ.
# [4] = test system: human tau N-terminal 1–368 fragment (hTau-N368); experiment: Hippocampal phosphorylated and total tau in dox-treated Tau368 mice; assay type: in vivo, mouse; conditions: 5 mM, i.c.v.
# [5] = DEPTAC for a consecutive month after stopping dox, **p < 0.01, n = 3 mice
# [6] = dox kept on, DEPTAC i.c.v. by guiding cannula once every three days for a consecutive month, 10 μg total protein, *p < 0.05, n = 3–4
# [7] = hippocampus of Tau368 mice, 24 h of post-DEPTAC administration
# [8] = then 1-month DEPTAC, *p < 0.05, n = 5 mice, 12–23 view fields
substance,measurement,setting,value
"(1) YQQYQDATADEQG, originates from the porcine β-tubulin 422–434 for recognizing and binding tau proteins.[5],[6] (2) GSGS, a linker for increasing the flexibility of the peptide.[15] (3) KKVAVVRTPPKSP, for recruiting PP2A-Bα,[16] and (4) RRRRRRRR [DEPTAC, DEPhosphorylation TArgeting Chimera; 38 amino acid residues, C185H314N72O56]",neuron penetrability in vitro,[1],high neuron penetrability; also recorded: High cell penetrability
same,hippocampal phospho-tau after stopping the dox,[2]; [5],reduced; also recorded: downregulated
same,hippocampal total tau after stopping the dox,[2]; [5],reduced; also recorded: downregulated
same,degree of tau reduction by DEPTAC,"[2]; discussion, compared with tau knock-out or siRNA knock-down",far less than tau knock-out or siRNA-mediated knock-down
same,"hippocampal phospho-tau, dox kept on",[2]; [6],significantly reduced; also recorded: effectively facilitated the dephosphorylation
same,"hippocampal total tau, dox kept on",[2]; [6],significantly reduced; also recorded: effectively facilitated the dephosphorylation as well as the degradation of tau
same,hippocampal phosphorylated tau,"[2]; dox-treated Tau368 mice, 5 mM, i.c.v., for a consecutive month / for once, 12–72 h post injection, n = 3–4",effective in reducing; also recorded: reduced phosphorylated and total tau prominently
same,RIPA lysis buffer-insoluble tau,[2]; [7],tend to be decreased
same,RIPA lysis buffer-soluble tau,[2]; [7],tend to be decreased
same,density of microtubule bundles,[3]; [8],significantly reversed
same,length of microtubule bundles,[3]; [8],significantly reversed
same,microtubule disassembly in morphology,[3]; then DEPTAC for a consecutive month,efficiently reversed
same,time post injection of tau reduction,[4],12 to 72 h
same,hippocampal total tau,"[4]; for a consecutive month / for once, 12–72 h post injection, n = 3–4",effective in reducing; also recorded: reduced phosphorylated and total tau prominently
